Reference: patent US20240239790A1, “7-Morpholino-1,6-Naphthyridin-5-yl Derivatives and Pharmaceutical Compositions Thereof Useful as DNA-PK Inhibitor” (adMare Therapeutics Society, priority 2021, published 2024)

Test system: FaDu tumour xenograft
Test: Tumour Growth Delay, FaDu tumour xenograft-bearing animals, compound ± radiation (TGD-ER)
Assay type: in vivo
Conditions: PO
Description: FaDu tumour xenograft-bearing animals were monitored for tumour growth and once average tumour size reached approximately 100-250 mm3, animals were assigned to treatment cohorts using stratified randomization. […]
For BID dosing regimens, at 8 h following the first injection, animals were again administered with test compound at the same dose as their previous administration. Animals were weighed and had tumours measured using calipers three times weekly until the endpoint of maximum tumour volume, 1000 mm3, was reached and animals were euthanized. Tumour volumes were calculated according to the equation L×W^2/2 with the length (mm) being the longer axis of the tumour; in the case that no tumour was palpable, tumour volumes were recorded as 0 mm^3.
Data were calculated as tumour growth normalized to day 0 measurements, with time to tumour doubling determined. Average time to tumour doubling for each group was used to determine a Tumour Growth Delay Enhancement Ratio (TGD-ER): the time to doubling for treatment groups were divided by the time to doubling for irradiation-alone groups to determine group-specific TGD-ER values, and these were assigned scores based on defined response ranges: values>2.5=A, 1-2.5=B, <1=C.

| Structure (SMILES) | TGD-ER Range Score (10 mpk + 10 Gy) | TGD-ER Range Score (30 mpk + 10 Gy) | TGD-ER Range Score (100 mpk + 10 Gy) | TGD-ER Range Score (30 mpk BID + 10 Gy) |
| --- | --- | --- | --- | --- |
| CN(C)C(=O)COc1cnc(N[C@H]2CC[C@@H](Oc3nc(N4CCOCC4)cc4ncccc34)CC2)nc1 [Compound 54, N,N-Dimethyl-2-((2-(((1s,4s)-4-((7-morpholino-1,6-naphthyridin-5-yl)oxy)cyclohexyl)amino)pyrimidin-5-yl)oxy)acetamide] | B (1-2.5=B) | A (values>2.5=A) | B (1-2.5=B) | – |
| O=C(COc1cnc(N[C@H]2CC[C@@H](Oc3nc(N4CCOCC4)cc4ncccc34)CC2)nc1)N1CCC1 [Compound 75, 1-(Azetidin-1-yl)-2-((2-(((1s,4s)-4-((7-morpholino-1,6-naphthyridin-5-yl)oxy)cyclohexyl)amino)pyrimidin-5-yl)oxy)ethan-1-one] | – | – | – | B (1-2.5=B) |
